The subject of assay [1] is RNAi induced by synthetic double-stranded RNA (dsRNA). Kind of assay: Northern blot of Cyclin A mRNA in S2 cells, RNAi induced by synthetic dsRNA (dsCycA). In kind it is cell-based, Drosophila. As to conditions: for Degradation of cyclin A mRNA targeted by dsCycA: dsCycA plus 30 μM compound. From the text: FIG. 2 illustrates the northern blot detection of Cyclin A mRNA in S2 cells.
Degradation of cyclin A mRNA occurred in S2 cells transfected with a dsRNA specific to cyclin A (dsCycA) (see, FIG. 2, lanes 1-2), but not in cells treated with a GFP-specific dsRNA (dsGFP) (see, FIG. 2, lane 8). […] Similar inhibition of cyclin A RNAi was also observed in cells co-transfected with a dsRNA targeting mRNA of Drosophila Ago2 (see, FIG. 2, lane 9), which is essential for RNAi in Drosophila.

Assay [2] has as its system RNAi-mediated innate immunity against virus infection in cultured Drosophila cells. Kind of assay: Cell-based high throughput screen, GFP expression in R1gfp cells after induction of FHV replication. From the text:
A cell-based high throughput screening protocol for the identification of chemical inhibitors of the RNAi-mediated innate immunity against virus infection in cultured Drosophila cells has been established. The system is based on Flock house virus (FHV), an animal Nodavirus that contains a bipartite RNA genome. FHV RNA2 encodes the single virion structural protein, whereas FHV RNA1 encodes the viral RNA-dependent RNA polymerase (RdRP) and B2, a viral suppressor of RNAi (VSR) expressed after RNA1 replication from its own mRNA, RNA3. In the absence of RNA2, RNA1 replicates autonomously, accumulates to high levels, and produces abundant RNA3 in Drosophila cells. […] Similarly, green fluorescence is not detectable in wild type Drosophila cells transfected with pR1gfp, which encodes a recombinant RNA1 in which the viral B2 gene is replaced with green fluorescent protein (GFP) gene. A stable Drosophila Schneider 2 cell line has been established, and carries pR1gfp, called line R1gfp. R1gfp cells were seeded in 96-well plates and incubated overnight with chemicals from ChemBridge Diverset Library before FHV replication was induced. Expression of GFP was screened in R1gfp cells two days following the induction of FHV replication (see, Li et al., Proc Natl Acad Sci USA 2004, 101(5), 1350-5).

The structures appear in SMILES notation.

Take `COc1ccc(CN2CCN(S(=O)(=O)c3ccc(C)cc3)CC2)cc1OCc1ccccc1` [Rin2, 1-[3-(benzyloxy)-4-methoxybenzyl]-4-[(4-methylphenyl)sulfony]piperazine]: in assay [1], the “Inhibition of RNAi induced by synthetic double-stranded RNA (dsRNA)” value was “active inhibitors” and the “Degradation of cyclin A mRNA targeted by dsCycA” value is recorded as “partially inhibited”. Also, the “Inhibition of RNAi-mediated viral immunity (detection of green fluorescence)” value in assay [2] is reported as “inhibit the RNAi-mediated viral immunity”.
As for `CCN(CC)c1ccc(/C=C2/C(=O)NN(c3ccc(C)c(Cl)c3)C2=O)c(O)c1` [Rin3, 1-(3-chloro-4-methylphenyl)-4-[4-(diethylamino)-2-hydroxybenzylidene]-3,5-pyrazolidinedione], in assay [1], the “Inhibition of RNAi induced by synthetic double-stranded RNA (dsRNA)” value is on record as “active inhibitors” and the “Degradation of cyclin A mRNA targeted by dsCycA” value is “partially inhibited”. Besides, in assay [2], the “Inhibition of RNAi-mediated viral immunity (detection of green fluorescence)” value is recorded as “inhibit the RNAi-mediated viral immunity”.

For the origin of these results see US20120077804A1, “Small Molecule Inhibitors of RNA Silencing” (The Regents of the University of California, priority 2007, published 2012).
